{"source": "PubChem BioAssay AID1745844", "about": "(Carcinogenic Potency Database (CPDB), 2022)", "test_system": "rodent lifetime carcinogenesis bioassay, tumor incidence TD50", "assay": "chronic cancer bioassays in animals – CPDB, compiled studies (AID 1745844)", "details": "rat, strain Fischer 344, by gavage", "data": [{"smiles": "ClCC(Cl)CCl", "values": [{"measurement": "TD50", "setting": "females, site: mammary gland, lesion: fibroadenoma, dosed 91 weeks, study length 105 weeks", "value": 3.42, "unit": "mg/kg/day"}, {"measurement": "TD50", "setting": "females, site: palate + pharynx + tongue, lesion: squamous-cell papilloma + squamous-cell carcinoma, dosed 91 weeks, study length 105 weeks", "value": 2.93, "unit": "mg/kg/day"}, {"measurement": "TD50", "setting": "females, site: palate + pharynx, lesion: squamous-cell carcinoma, dosed 91 weeks, study length 105 weeks", "value": 8.87, "unit": "mg/kg/day"}, {"measurement": "TD50", "setting": "females, site: palate + tongue, lesion: squamous-cell papilloma, dosed 91 weeks, study length 105 weeks", "value": 5.98, "unit": "mg/kg/day"}, {"measurement": "TD50", "setting": "females, site: palate, lesion: squamous-cell papilloma, dosed 91 weeks, study length 105 weeks", "value": 18.5, "unit": "mg/kg/day"}, {"measurement": "TD50", "setting": "females, site: pharynx + tongue, lesion: squamous-cell carcinoma, dosed 91 weeks, study length 105 weeks", "value": 5.12, "unit": "mg/kg/day"}, {"measurement": "TD50", "setting": "females, site: thyroid gland, lesion: follicular-cell adenoma + follicular-cell carcinoma, dosed 91 weeks, study length 105 weeks", "value": 25.2, "unit": "mg/kg/day"}, {"measurement": "TD50", "setting": "females, site: thyroid gland, lesion: follicular-cell adenoma, dosed 91 weeks, study length 105 weeks", "value": 36.9, "unit": "mg/kg/day"}, {"measurement": "TD50", "setting": "females, site: tongue, lesion: squamous-cell carcinoma + squamous-cell papilloma, dosed 91 weeks, study length 105 weeks", "value": 4.7, "unit": "mg/kg/day"}, {"measurement": "TD50", "setting": "females, site: tongue, lesion: squamous-cell carcinoma, dosed 91 weeks, study length 105 weeks", "value": 10.1, "unit": "mg/kg/day"}, {"measurement": "TD50", "setting": "females, site: tongue, lesion: squamous-cell papilloma, dosed 91 weeks, study length 105 weeks", "value": 9.61, "unit": "mg/kg/day"}, {"measurement": "TD50", "setting": "males, site: Zymbal's gland, lesion: carcinoma, dosed 94 weeks, study length 104 weeks", "value": 297, "unit": "mg/kg/day"}, {"measurement": "TD50", "setting": "males, site: adrenal medulla, lesion: pheochromocytoma benign, bilateral + pheochromocytoma, benign, dosed 94 weeks, study length 104 weeks", "value": 12.4, "unit": "mg/kg/day"}, {"measurement": "TD50", "setting": "males, site: adrenal medulla, lesion: pheochromocytoma benign, bilateral + pheochromocytoma, complex + pheochromocytoma, malignant + pheochromocytoma, benign, dosed 94 weeks, study length 104 weeks", "value": 11.4, "unit": "mg/kg/day"}, {"measurement": "TD50", "setting": "males, site: all sites, lesion: mononuclear-cell leukemia, dosed 94 weeks, study length 104 weeks", "value": 11.9, "unit": "mg/kg/day"}, {"measurement": "TD50", "setting": "males, site: any site (literature study), lesion: several types, types named in the paper, dosed 94 weeks, study length 104 weeks", "value": 1.36, "unit": "mg/kg/day"}, {"measurement": "TD50", "setting": "males, site: colon + jejunum + rectum, lesion: adenocarcinoma + adenomatous polyp, dosed 94 weeks, study length 104 weeks", "value": 73.4, "unit": "mg/kg/day"}, {"measurement": "TD50", "setting": "males, site: colon + jejunum, lesion: adenocarcinoma, dosed 94 weeks, study length 104 weeks", "value": 102, "unit": "mg/kg/day"}, {"measurement": "TD50", "setting": "males, site: colon + rectum, lesion: adenomatous polyp, dosed 94 weeks, study length 104 weeks", "value": 264, "unit": "mg/kg/day"}, {"measurement": "TD50", "setting": "males, site: forestomach + kidney + palate + pancreas + preputial gland + tongue + Zymbal's gland, lesion: squamous-cell carcinoma + squamous-cell papilloma + tubule adenoma + adenoma + acinar-cell adenoma + acinar-cell adenocarcinoma + ca, dosed 94 weeks, study length 104 weeks", "value": 1.1, "unit": "mg/kg/day"}, {"measurement": "TD50", "setting": "males, site: forestomach, lesion: squamous-cell carcinoma + squamous-cell papilloma, dosed 94 weeks, study length 104 weeks", "value": 1.15, "unit": "mg/kg/day"}, {"measurement": "TD50", "setting": "males, site: forestomach, lesion: squamous-cell carcinoma, dosed 94 weeks, study length 104 weeks", "value": 3, "unit": "mg/kg/day"}, {"measurement": "TD50", "setting": "males, site: forestomach, lesion: squamous-cell papilloma, dosed 94 weeks, study length 104 weeks", "value": 1.53, "unit": "mg/kg/day"}, {"measurement": "TD50", "setting": "males, site: kidney, lesion: tubule adenoma, dosed 94 weeks, study length 104 weeks", "value": 4.44, "unit": "mg/kg/day"}, {"measurement": "TD50", "setting": "males, site: liver, lesion: hepatocellular adenoma + hepatoblastoma + hepatocellular carcinoma, dosed 94 weeks, study length 104 weeks", "value": 23, "unit": "mg/kg/day"}, {"measurement": "TD50", "setting": "males, site: liver, lesion: hepatocellular adenoma + hepatocellular carcinoma, dosed 94 weeks, study length 104 weeks", "value": 23, "unit": "mg/kg/day"}, {"measurement": "TD50", "setting": "males, site: liver, lesion: hepatocellular adenoma, dosed 94 weeks, study length 104 weeks", "value": 31.7, "unit": "mg/kg/day"}, {"measurement": "TD50", "setting": "males, site: palate + tongue, lesion: squamous-cell carcinoma + squamous-cell papilloma, dosed 94 weeks, study length 104 weeks", "value": 4.48, "unit": "mg/kg/day"}, {"measurement": "TD50", "setting": "males, site: palate + tongue, lesion: squamous-cell carcinoma, dosed 94 weeks, study length 104 weeks", "value": 8.65, "unit": "mg/kg/day"}, {"measurement": "TD50", "setting": "males, site: palate + tongue, lesion: squamous-cell papilloma, dosed 94 weeks, study length 104 weeks", "value": 8.16, "unit": "mg/kg/day"}, {"measurement": "TD50", "setting": "males, site: palate, lesion: squamous-cell carcinoma, dosed 94 weeks, study length 104 weeks", "value": 11.7, "unit": "mg/kg/day"}, {"measurement": "TD50", "setting": "males, site: palate, lesion: squamous-cell papilloma, dosed 94 weeks, study length 104 weeks", "value": 36.6, "unit": "mg/kg/day"}, {"measurement": "TD50", "setting": "males, site: pancreas, lesion: acinar-cell adenocarcinoma, dosed 94 weeks, study length 104 weeks", "value": 51.5, "unit": "mg/kg/day"}, {"measurement": "TD50", "setting": "males, site: pancreas, lesion: adenoma + acinar-cell adenoma + acinar-cell adenocarcinoma, dosed 94 weeks, study length 104 weeks", "value": 1.65, "unit": "mg/kg/day"}, {"measurement": "TD50", "setting": "males, site: pancreas, lesion: adenoma + acinar-cell adenoma, dosed 94 weeks, study length 104 weeks", "value": 1.65, "unit": "mg/kg/day"}, {"measurement": "TD50", "setting": "males, site: preputial gland, lesion: adenoma + carcinoma, dosed 94 weeks, study length 104 weeks", "value": 9.59, "unit": "mg/kg/day"}, {"measurement": "TD50", "setting": "males, site: preputial gland, lesion: adenoma, dosed 94 weeks, study length 104 weeks", "value": 14, "unit": "mg/kg/day"}, {"measurement": "TD50", "setting": "males, site: preputial gland, lesion: carcinoma, dosed 94 weeks, study length 104 weeks", "value": 28, "unit": "mg/kg/day"}, {"measurement": "TD50", "setting": "males, site: skin, lesion: basal-cell carcinoma + keratoacanthoma + squamous-cell carcinoma + squamous-cell papilloma + trichoepithelioma, dosed 94 weeks, study length 104 weeks", "value": 20.8, "unit": "mg/kg/day"}, {"measurement": "TD50", "setting": "males, site: skin, lesion: squamous-cell carcinoma + squamous-cell papilloma, dosed 94 weeks, study length 104 weeks", "value": 39.6, "unit": "mg/kg/day"}, {"measurement": "TD50", "setting": "males, site: skin, lesion: squamous-cell papilloma, dosed 94 weeks, study length 104 weeks", "value": 51, "unit": "mg/kg/day"}, {"measurement": "TD50", "setting": "males, site: subcutaneous tissue, lesion: fibroma + sarcoma, dosed 94 weeks, study length 104 weeks", "value": 19.6, "unit": "mg/kg/day"}, {"measurement": "TD50", "setting": "males, site: subcutaneous tissue, lesion: fibroma, dosed 94 weeks, study length 104 weeks", "value": 20.2, "unit": "mg/kg/day"}, {"measurement": "TD50", "setting": "males, site: testis, lesion: interstitial-cell adenoma, bilateral + interstitial-cell adenoma, dosed 94 weeks, study length 104 weeks", "value": 1.35, "unit": "mg/kg/day"}, {"measurement": "TD50", "setting": "males, site: thyroid gland, lesion: c-cell adenoma + c-cell carcinoma, dosed 94 weeks, study length 104 weeks", "value": 8.15, "unit": "mg/kg/day"}, {"measurement": "TD50", "setting": "males, site: thyroid gland, lesion: c-cell adenoma, dosed 94 weeks, study length 104 weeks", "value": 10.3, "unit": "mg/kg/day"}, {"measurement": "TD50", "setting": "males, site: thyroid gland, lesion: follicular-cell adenoma + follicular-cell carcinoma, dosed 94 weeks, study length 104 weeks", "value": 35.2, "unit": "mg/kg/day"}, {"measurement": "TD50", "setting": "males, site: tongue, lesion: squamous-cell carcinoma + squamous-cell papilloma, dosed 94 weeks, study length 104 weeks", "value": 7.86, "unit": "mg/kg/day"}, {"measurement": "TD50", "setting": "males, site: tongue, lesion: squamous-cell carcinoma, dosed 94 weeks, study length 104 weeks", "value": 34.7, "unit": "mg/kg/day"}, {"measurement": "TD50", "setting": "males, site: tongue, lesion: squamous-cell papilloma, dosed 94 weeks, study length 104 weeks", "value": 10.2, "unit": "mg/kg/day"}]}]}
